Test results: ChEMBL document CHEMBL1795319, “Design, synthesis and antifungal evaluation of 1-(2-(2,4-difluorophenyl)-2-hydroxy-3-(1H-1,2,4-triazol-1-yl)propyl)-1H-1,2,4-triazol-5(4H)-one” (2011)
≈ marks a conversion by molar mass, not a printed value.

Assays:
Type in all cases: functional
Kluyveromyces marxianus = assay: Antifungal activity against Candida kefyr by micro-broth dilution method
Candida tropicalis = assay: Antifungal activity against Candida tropicalis by micro-broth dilution method
Candida albicans [1] = assay: Antifungal activity against Candida albicans SC5314 after 24 hrs by micro-broth dilution method; conditions: SC5314, 24 h
Aspergillus fumigatus = assay: Antifungal activity against Aspergillus fumigatus by broth microdilution method
Trichophyton rubrum = assay: Antifungal activity against Trichophyton rubrum by micro-broth dilution method
Candida albicans [2] = assay: Antifungal activity against Candida albicans Y0109 after 24 hrs by micro-broth dilution method; conditions: Y0109, 24 h
Candida parapsilosis = assay: Antifungal activity against Candida parapsilosis by micro-broth dilution method; conditions: Lodderomyces parapsilosis
Cryptococcus neoformans = assay: Antifungal activity against Cryptococcus neoformans BLS108 after 72 hrs by micro-broth dilution method; conditions: BLS108, 72 h

Structure (SMILES) | MIC80 (Kluyveromyces marxianus) [µg/mL] | MIC80 (Candida tropicalis) [µg/mL] | MIC80 (Candida albicans [1]) [µg/mL] | MIC80 (Aspergillus fumigatus) [µg/mL] | MIC80 (Trichophyton rubrum) [µg/mL] | MIC80 (Candida albicans [2]) [µg/mL] | MIC80 (Candida parapsilosis) [µg/mL] | MIC80 (Cryptococcus neoformans) [µg/mL]
O=c1n(-c2ccc(Cl)cc2)cnn1CC(O)(Cn1cncn1)c1ccc(F)cc1F (racemic) | 0.0156 (≈ 0.036 µM) | 0.0625 (≈ 0.144 µM) | 0.0625 (≈ 0.144 µM) | > 64 | 16 (≈ 37 µM) | 0.0625 (≈ 0.144 µM) | 1 (≈ 2.31 µM) | 64 (≈ 148 µM)
O=c1n(-c2ccc(Br)cc2)cnn1CC(O)(Cn1cncn1)c1ccc(F)cc1F (racemic) | 0.0156 (≈ 0.0327 µM) | 0.0625 (≈ 0.131 µM) | 1 (≈ 2.1 µM) | > 64 | 16 (≈ 33.5 µM) | 0.156 (≈ 0.327 µM) | 1 (≈ 2.1 µM) | 16 (≈ 33.5 µM)
O=C(Nc1ccc(-n2cnn(CC(O)(Cn3cncn3)c3ccc(F)cc3F)c2=O)cc1)c1cccnc1 (racemic) | 16 (≈ 30.9 µM) | 4 (≈ 7.71 µM) | 1 (≈ 1.93 µM) | > 64 | 64 (≈ 123 µM) | 1 (≈ 1.93 µM) | 1 (≈ 1.93 µM) | 64 (≈ 123 µM)
O=c1n(-c2nc(-c3ccc(Cl)cc3Cl)cs2)cnn1CC(O)(Cn1cncn1)c1ccc(F)cc1F (racemic) | 4 (≈ 7.27 µM) | 16 (≈ 29.1 µM) | 16 (≈ 29.1 µM) | > 64 | 64 (≈ 116 µM) | 16 (≈ 29.1 µM) | 64 (≈ 116 µM) | 64 (≈ 116 µM)
O=C(Nc1ccc(-n2cnn(CC(O)(Cn3cncn3)c3ccc(F)cc3F)c2=O)cc1)c1cccs1 (racemic) | > 64 | 16 (≈ 30.6 µM) | 0.25 (≈ 0.478 µM) | > 64 | > 64 | 1 (≈ 1.91 µM) | 4 (≈ 7.64 µM) | > 64
CCCCCC(=O)Nc1ccc(-n2cnn(CC(O)(Cn3cncn3)c3ccc(F)cc3F)c2=O)cc1 (racemic) | 4 (≈ 7.82 µM) | 0.00097 (≈ 0.0019 µM) | 0.00097 (≈ 0.0019 µM) | > 64 | 64 (≈ 125 µM) | 0.00024 (≈ 0.000469 µM) | 0.00024 (≈ 0.000469 µM) | 0.0625 (≈ 0.122 µM)
O=C(Nc1ccc(-n2cnn(CC(O)(Cn3cncn3)c3ccc(F)cc3F)c2=O)cc1)c1ccccn1 (racemic) | 16 (≈ 30.9 µM) | > 64 | 1 (≈ 1.93 µM) | > 64 | > 64 | 4 (≈ 7.71 µM) | 4 (≈ 7.71 µM) | > 64
CCCC(=O)Nc1ccc(-n2cnn(CC(O)(Cn3cncn3)c3ccc(F)cc3F)c2=O)cc1 (racemic) | 16 (≈ 33.1 µM) | 4 (≈ 8.27 µM) | 4 (≈ 8.27 µM) | > 64 | > 64 | 4 (≈ 8.27 µM) | 4 (≈ 8.27 µM) | > 64
CCCCCCCC(=O)Nc1ccc(-n2cnn(CC(O)(Cn3cncn3)c3ccc(F)cc3F)c2=O)cc1 (racemic) | > 64 | 64 (≈ 119 µM) | 4 (≈ 7.41 µM) | > 64 | > 64 | 16 (≈ 29.7 µM) | 64 (≈ 119 µM) | > 64
COc1ccc(-n2cnn(CC(O)(Cn3cncn3)c3ccc(F)cc3F)c2=O)cc1 (racemic) | 0.0625 (≈ 0.146 µM) | 0.0625 (≈ 0.146 µM) | 1 (≈ 2.33 µM) | > 64 | 16 (≈ 37.3 µM) | 0.0625 (≈ 0.146 µM) | 1 (≈ 2.33 µM) | 16 (≈ 37.3 µM)
CCC(C)n1ncn(-c2ccc(N3CCN(c4ccc(OCC5COC(Cn6cncn6)(c6ccc(Cl)cc6Cl)O5)cc4)CC3)cc2)c1=O (stereo unspecified) [ITRACONAZOLE] | 0.0625 (≈ 0.0886 µM) | 0.0625 (≈ 0.0886 µM) | 0.0625 (≈ 0.0886 µM) | 0.0625 (≈ 0.0886 µM) | 0.0625 (≈ 0.0886 µM) | 0.0625 (≈ 0.0886 µM) | 0.0625 (≈ 0.0886 µM) | 0.0625 (≈ 0.0886 µM)
Cc1ccc(-n2cnn(CC(O)(Cn3cncn3)c3ccc(F)cc3F)c2=O)cc1 (racemic) | 0.25 (≈ 0.606 µM) | 0.25 (≈ 0.606 µM) | 0.25 (≈ 0.606 µM) | > 64 | 64 (≈ 155 µM) | 1 (≈ 2.42 µM) | 4 (≈ 9.7 µM) | 64 (≈ 155 µM)
Cc1ccnc(-n2cnn(CC(O)(Cn3cncn3)c3ccc(F)cc3F)c2=O)c1 (racemic) | 0.0625 (≈ 0.151 µM) | 0.00024 (≈ 0.000581 µM) | 0.00024 (≈ 0.000581 µM) | > 64 | 64 (≈ 155 µM) | 0.00024 (≈ 0.000581 µM) | 0.00024 (≈ 0.000581 µM) | 0.00024 (≈ 0.000581 µM)
O=c1n(-c2ccc([N+](=O)[O-])cc2)cnn1CC(O)(Cn1cncn1)c1ccc(F)cc1F (racemic) | 0.25 (≈ 0.564 µM) | 0.25 (≈ 0.564 µM) | 1 (≈ 2.26 µM) | > 64 | 16 (≈ 36.1 µM) | 1 (≈ 2.26 µM) | 16 (≈ 36.1 µM) | 64 (≈ 144 µM)
CCC(=O)Nc1ccc(-n2cnn(CC(O)(Cn3cncn3)c3ccc(F)cc3F)c2=O)cc1 (racemic) | 64 (≈ 136 µM) | 16 (≈ 34.1 µM) | 1 (≈ 2.13 µM) | > 64 | > 64 | 4 (≈ 8.52 µM) | 4 (≈ 8.52 µM) | > 64
O=c1n(-c2ccccc2)cnn1CC(O)(Cn1cncn1)c1ccc(F)cc1F (racemic) | 0.25 (≈ 0.628 µM) | 0.25 (≈ 0.628 µM) | 1 (≈ 2.51 µM) | > 64 | 16 (≈ 40.2 µM) | 0.25 (≈ 0.628 µM) | 4 (≈ 10 µM) | 64 (≈ 161 µM)

Structure (SMILES) | MIC80 (Kluyveromyces marxianus) [µg/mL] | MIC80 (Candida tropicalis) [µg/mL] | MIC80 (Candida albicans [1]) [µg/mL] | MIC80 (Aspergillus fumigatus) [µg/mL] | MIC80 (Trichophyton rubrum) [µg/mL] | MIC80 (Candida albicans [2]) [µg/mL] | MIC80 (Candida parapsilosis) [µg/mL] | MIC80 (Cryptococcus neoformans) [µg/mL]
CCCCC(=O)Nc1ccc(-n2cnn(CC(O)(Cn3cncn3)c3ccc(F)cc3F)c2=O)cc1 (racemic) | 64 (≈ 129 µM) | 0.0625 (≈ 0.126 µM) | 0.00097 (≈ 0.00195 µM) | > 64 | > 64 | 0.00024 (≈ 0.000482 µM) | 0.00024 (≈ 0.000482 µM) | 0.0625 (≈ 0.126 µM)
C[C@@H]1[C@H](O)[C@@H](C)/C=C/C=C/C=C/C=C/C=C/C=C/C=C/[C@H](O[C@@H]2O[C@H](C)[C@@H](O)[C@H](N)[C@@H]2O)C[C@@H]2O[C@](O)(C[C@@H](O)C[C@@H](O)[C@H](O)CC[C@@H](O)C[C@@H](O)CC(=O)O[C@H]1C)C[C@H](O)[C@H]2C(=O)O [AMPHOTERICIN B] | 0.25 (≈ 0.271 µM) | 1 (≈ 1.08 µM) | 0.25 (≈ 0.271 µM) | 1 (≈ 1.08 µM) | 4 (≈ 4.33 µM) | 0.25 (≈ 0.271 µM) | 0.25 (≈ 0.271 µM) | 1 (≈ 1.08 µM)
CCCCCCC(=O)Nc1ccc(-n2cnn(CC(O)(Cn3cncn3)c3ccc(F)cc3F)c2=O)cc1 (racemic) | 1 (≈ 1.9 µM) | 64 (≈ 122 µM) | 0.0039 (≈ 0.00742 µM) | > 64 | 64 (≈ 122 µM) | 0.0625 (≈ 0.119 µM) | 1 (≈ 1.9 µM) | 0.0625 (≈ 0.119 µM)
O=c1n(-c2nccs2)cnn1CC(O)(Cn1cncn1)c1ccc(F)cc1F (racemic) | 1 (≈ 2.47 µM) | 1 (≈ 2.47 µM) | 0.25 (≈ 0.617 µM) | > 64 | 16 (≈ 39.5 µM) | 1 (≈ 2.47 µM) | 0.25 (≈ 0.617 µM) | 64 (≈ 158 µM)
N#Cc1ccc(-n2cnn(CC(O)(Cn3cncn3)c3ccc(F)cc3F)c2=O)cc1 (racemic) | 16 (≈ 37.8 µM) | 4 (≈ 9.45 µM) | 1 (≈ 2.36 µM) | > 64 | 64 (≈ 151 µM) | 1 (≈ 2.36 µM) | 1 (≈ 2.36 µM) | > 64
O=c1n(-c2ccc(F)cc2)cnn1CC(O)(Cn1cncn1)c1ccc(F)cc1F (racemic) | 0.25 (≈ 0.6 µM) | 0.25 (≈ 0.6 µM) | 1 (≈ 2.4 µM) | > 64 | 64 (≈ 154 µM) | 1 (≈ 2.4 µM) | 4 (≈ 9.61 µM) | > 64
O=C(Nc1ccc(-n2cnn(CC(O)(Cn3cncn3)c3ccc(F)cc3F)c2=O)cc1)C1CCCCC1 (racemic) | > 64 | > 64 | > 64 | > 64 | 16 (≈ 30.6 µM) | > 64 | > 64 | > 64
N#CCC(=O)Nc1ccc(-n2cnn(CC(O)(Cn3cncn3)c3ccc(F)cc3F)c2=O)cc1 (racemic) | > 64 | 1 (≈ 2.08 µM) | 0.25 (≈ 0.52 µM) | > 64 | 16 (≈ 33.3 µM) | 1 (≈ 2.08 µM) | 1 (≈ 2.08 µM) | > 64
Cc1ccc(-n2cnn(CC(O)(Cn3cncn3)c3ccc(F)cc3F)c2=O)nc1 (racemic) | 4 (≈ 9.68 µM) | 64 (≈ 155 µM) | 4 (≈ 9.68 µM) | > 64 | 16 (≈ 38.7 µM) | 4 (≈ 9.68 µM) | 4 (≈ 9.68 µM) | 16 (≈ 38.7 µM)
O=c1n(-c2ccccc2Cl)cnn1CC(O)(Cn1cncn1)c1ccc(F)cc1F (racemic) | 0.25 (≈ 0.578 µM) | 1 (≈ 2.31 µM) | 1 (≈ 2.31 µM) | > 64 | 64 (≈ 148 µM) | 1 (≈ 2.31 µM) | 16 (≈ 37 µM) | 64 (≈ 148 µM)
CC(=O)Nc1ccc(-n2cnn(CC(O)(Cn3cncn3)c3ccc(F)cc3F)c2=O)cc1 (racemic) | > 64 | 16 (≈ 35.1 µM) | 16 (≈ 35.1 µM) | > 64 | > 64 | 4 (≈ 8.78 µM) | 16 (≈ 35.1 µM) | > 64
C[C@@H](c1ncncc1F)[C@](O)(Cn1cncn1)c1ccc(F)cc1F [VORICONAZOLE] | 0.0039 (≈ 0.0112 µM) | 0.0039 (≈ 0.0112 µM) | 0.0039 (≈ 0.0112 µM) | 0.0039 (≈ 0.0112 µM) | 0.0156 (≈ 0.0447 µM) | 0.0039 (≈ 0.0112 µM) | 0.0039 (≈ 0.0112 µM) | 0.0039 (≈ 0.0112 µM)
O=C(Nc1ccc(-n2cnn(CC(O)(Cn3cncn3)c3ccc(F)cc3F)c2=O)cc1)C1CC1 (racemic) | > 64 | 1 (≈ 2.08 µM) | 0.0625 (≈ 0.13 µM) | > 64 | > 64 | 0.0625 (≈ 0.13 µM) | 0.25 (≈ 0.519 µM) | > 64
N#Cc1cccc(-n2cnn(CC(O)(Cn3cncn3)c3ccc(F)cc3F)c2=O)c1 (racemic) | 0.00024 (≈ 0.000567 µM) | 0.00024 (≈ 0.000567 µM) | 0.00024 (≈ 0.000567 µM) | > 64 | 4 (≈ 9.45 µM) | 0.00024 (≈ 0.000567 µM) | 0.00024 (≈ 0.000567 µM) | 0.25 (≈ 0.59 µM)
O=c1n(-c2ccc(Cl)c(Cl)c2)cnn1CC(O)(Cn1cncn1)c1ccc(F)cc1F (racemic) | 16 (≈ 34.2 µM) | 64 (≈ 137 µM) | 4 (≈ 8.56 µM) | > 64 | > 64 | 16 (≈ 34.2 µM) | 16 (≈ 34.2 µM) | 0.25 (≈ 0.535 µM)
OC(Cn1cncn1)(Cn1cncn1)c1ccc(F)cc1F [FLUCONAZOLE] | 4 (≈ 13.1 µM) | 1 (≈ 3.27 µM) | 0.25 (≈ 0.816 µM) | > 64 | 1 (≈ 3.27 µM) | 0.25 (≈ 0.816 µM) | 0.25 (≈ 0.816 µM) | 1 (≈ 3.27 µM)
